“Also recorded” adds a separate entry of the source.
What was measured:
Assay type in all cases: cell-based, human
[1] = tested on: pMEK; assay: IHC and image analysis of pMEK under DFO-induced hypoxia; settings: Jurkat cells, 50 μM DFO overnight vs vehicle
Procedure: (§1) These markers were evaluated by immunohistochemistry (“IHC”) and image analysis in the presence of Desferrioxarnine (“DFO”)-induced hypoxia, as well as in its absence, or normoxia. DFO is an iron-chelating agent known to induce hypoxia, and was used in these experiments as a model for hypoxia. All IHC analyses were carried out on either the BenchMark XT® or Discovery XT® (Ventana Medical Systems, Inc., Tucson Ariz. (“VMSI”)) staining platforms. Primary antibodies were obtained from commercial sources (See Table 1). Controls were vehicle treated. […] Primary antibodies were detected using the DABMapTM, OmniMapTM (Discovery XT®), or iViewTM DAB (BenchMark XT®) detection kit according to the manufacturer's instructions. […] Detection Kit detected specific mouse IgG, IgM and rabbit IgG antibodies bound to an antigen in paraffin-embedded or frozen tissue section. […] Staining intensities, percentage of reactive cells, and cellular localization were recorded. […] Slides were reviewed and scored by the pathologist prior to quantitation by optical imaging. For optical imaging, a digital application (VMSI) with image quantification based on the intensity (expressed as average optical density, or avg. OD) of the stain converted to a numerical score was utilized. […]

[2] = tested on: pERK (p44/p42); assay: IHC and image analysis of pERK (p44/p42) under DFO-induced hypoxia; settings: 50 μM DFO overnight vs vehicle; negative in Jurkat cells, positive in HT1080 cells
Procedure: as §1

[3] = tested on: pS6; assay: IHC and image analysis of pS6 under DFO-induced hypoxia; settings: Jurkat cells, 50 μM DFO overnight vs vehicle
Procedure: These markers were evaluated by immunohistochemistry (“IHC”) and image analysis in the presence of Desferrioxarnine (“DFO”)-induced hypoxia, as well as in its absence, or normoxia. DFO is an iron-chelating agent known to induce hypoxia, and was used in these experiments as a model for hypoxia. All IHC analyses were carried out on either the BenchMark XT® or Discovery XT® (Ventana Medical Systems, Inc., Tucson Ariz. (“VMSI”)) staining platforms. Primary antibodies were obtained from commercial sources (See Table 1). Controls were vehicle treated. […] Primary antibodies were detected using the DABMapTM, OmniMapTM (Discovery XT®), or iViewTM DAB (BenchMark XT®) detection kit according to the manufacturer's instructions. […] Detection Kit detected specific mouse IgG, IgM and rabbit IgG antibodies bound to an antigen in paraffin-embedded or frozen tissue section. […]

[4] = tested on: pAKT; assay: IHC and image analysis of pAKT under DFO-induced hypoxia; settings: Jurkat cells, 50 μM DFO overnight vs vehicle
Procedure: as §1

[5] = tested on: pTSC2; assay: IHC and image analysis of pTSC2 under DFO-induced hypoxia; settings: Jurkat cells, 50 μM DFO overnight vs vehicle
Procedure: as §1

[6] = tested on: p4EBP1; assay: IHC and image analysis of p4EBP1 under DFO-induced hypoxia; settings: Jurkat cells, 50 μM DFO overnight vs vehicle
Procedure: as §1

[7] = tested on: mTOR; assay: IHC and image analysis of mTOR under DFO-induced hypoxia; settings: 50 μM DFO overnight vs vehicle; consistently high
Procedure: as §1

[8] = tested on: pmTOR; assay: IHC and image analysis of pmTOR under DFO-induced hypoxia; settings: Jurkat cells, 50 μM DFO overnight vs vehicle
Procedure: as §1

[9] = tested on: HIF-1α; assay: FACS of hypoxia-induced HIF-1α expression in Jurkat tumor cell line; settings: after treatment with DFO
Procedure: FIG. 6 illustrates the fluorescence-activated cell sorting (FACS) results of hypoxia-induced HIF-1α expression in a Jurkat tumor cell line. IHC was conducted and assessed according to the procedures detailed in Example 1. Western Blotting and FACS analysis were conducted using standard conditions.

[10] = tested on: HIF-1α; assay: IHC and image analysis of HIF-1α in HT1080 cells (DFO, PX-478 dose escalation); settings: DFO vs vehicle
[11] = tested on: HIF-1α; assay: IHC and image analysis of HIF-1α in Jurkat cells under DFO-induced hypoxia; settings: 50 μM DFO overnight vs vehicle
Procedure: as §1

## CC(=O)N(O)CCCCCNC(=O)CCC(=O)N(O)CCCCCNC(=O)CCC(=O)N(O)CCCCCN [DFO, desferrioxamine]
[1]
  pMEK expression (IHC): decrease in expression
[2]
  level of pERK (IHC): No change
[3]
  pS6 expression (IHC): decrease in expression
[4]
  pAKT level of expression or activation (IHC): no change
[5]
  pTSC2 level of expression or activation (IHC): no change
[6]
  p4EBP1 expression (IHC): decrease in expression
[7]
  level of mTOR (IHC): No change
[8]
  pmTOR expression (IHC): increase in expression
[9]
  HIF-1α (FACS): increase in HIF-1α
[10]
  HIF-1α expression (IHC): increased expression
[11]
  HIF-1α expression (IHC): increase in expression; also recorded: increased expression

— patent US20070031902A1, “Predictive Methods For Cancer Chemotherapy” (priority 2005, published 2007)
